These results are taken from US11884650B2, “Substituted heterocyclic compounds” (BRISTOL-MYERS SQUIBB COMPANY, priority 2021, dated 2024).

A short description of data set [1]: Brain Penetration In Vivo Assay. Further details: species or system C57BL6 wild-type mice. Particulars: C57BL6, brain and plasma, 10 mg/kg, mouse, 10 mpk, po, read-out: Ratio of exposure in brain to plasma. Here is the method: Brain Penetration In Vivo Assay
A pharmacokinetic study was performed using C57BL6 wild-type mice (n=3 per experiment) to determine brain and plasma exposure of compounds of the invention. The compound was administered orally in a solution of 5% ETHANOL; 90% PEG 300; 5% TPGS at 5 […] for a final concentration. of 10 mg/kg. Mice were euthanized 1 hour post-dose and plasma and brain were collected and frozen for analysis. Brain tissues were homogenized in a 1:1 volume of blank C57BL6 mouse plasma. Concentrations of the compound in plasma and brain homogenate were determined by LC-MS analysis.

The test system of data set [2] is IFNα-induced pSTAT5 in human whole blood (CD3 positive population). In words: IFNα-Induced STAT Phosphorylation in Human Whole Blood. It is filed as cell-based. Particulars: 1 h incubation with compound, 1000 U/mL IFNα A/D for 15 min, read-out: Human Whole blood IFNa pSTAT5 IC50. Here is the method: IFNα-Induced STAT Phosphorylation in Human Whole Blood
After an hour long incubation with compound, human whole blood (drawn with ACD-A as anticoagulant) was stimulated with 1000 U/mL recombinant human IFNα A/D (R&D Systems 11200-2) for 15 min. The stimulation was stopped by adding Fix/Lyse buffer (BD 558049). Cells were stained with a CD3 FITC antibody (BD 555916), washed, and permeabilized on ice using Perm III buffer (BD 558050). Cells were then stained with an Alexa-Fluor 647 pSTAT5 (pY694) antibody (BD 612599) for 60 min prior to analysis on the iQue Plus. The amount of pSTAT5 expression was quantitated by median fluorescence intensity after gating on the CD3 positive population.

Data set [3] can be described thus: in vitro. Particulars: human, Caco-2, pH 7.4.
In data set [4] the test system is Caco-2 cells. Particulars: human, Caco-2, 2 h, 3 μM, pH 7.4.

Turning to `CCC(=O)c1cnc(NC(=O)C2CC2)cc1Nc1nccc(-c2ncn(C)n2)c1OC` [A, reference compound], the Kp at 1 h in data set [1] is 0.14.

Consider `CCC(=O)c1cnc(NC(=O)C2CC2)cc1Nc1cccc(-c2ncn(C)n2)c1OC` [B, reference compound], for which the Kp at 1 h in data set [1] was 0.05.

What is called IC50 is the concentration that inhibits the measured activity by half. What is called Papp A→B is how fast a substance crosses the layer from the apical side. Read a high Papp A→B as ready permeation. For orientation: efflux ratio means the permeability from basolateral to apical divided by that in the opposite direction, in the common usage. `CCC(=O)c1cnc(NC(=O)C2CC2)cc1Nc1nccc(-c2cnn(C)n2)c1OC` [Example 1, N-(4-((3-methoxy-4-(2-methyl-2H-1,2,3-triazol-4-yl)pyridin-2-yl)amino)-5-propionylpyridin-2-yl)cyclopropanecarboxamide]: in data set [2], the IC50 amounted to 37 nM. Besides, the Kp at 1 h in data set [1] is 3.1. For the same compound, in data set [3], the Papp A→B at 2 h, 3 μM is 66.3 ×10⁻⁶ cm/s and the efflux ratio at 2 h, 3 μM stood at 0.1.

As to `CCC(=O)c1cnc(NC(=O)C2CC2)cc1Nc1nccc(-c2cnn(C3CC3)n2)c1OC` [Example 2, N-(4-((3-methoxy-4-(2-cyclopropyl-2H-1,2,3-triazol-4-yl)pyridin-2-yl)amino)-5-propionylpyridin-2-yl)cyclopropanecarboxamide], the 50% inhibitory concentration (IC50) in data set [2] turned out to be 400 nM. In data set [3], the apparent permeability from apical to basolateral (Papp A→B) at 2 h, 3 μM was determined as 18 ×10⁻⁶ cm/s and the efflux ratio at 2 h, 3 μM came out at 0.2.

In the case of `CCC(=O)c1cnc(NC(=O)C2CC2)cc1Nc1cccc(-c2cnn(C)n2)c1OC` [Example 3, N-(4-((2-methoxy-3-(2-methyl-2H-1,2,3-triazol-4-yl)phenyl)amino)-5-propionylpyridin-2-yl)cyclopropanecarboxamide], the IC50 in data set [2] was 460 nM. Besides, the Kp at 1 h in data set [1] amounted to 3. In data set [3], the Papp A→B at 2 h, 3 μM is 18.3 ×10⁻⁶ cm/s and the efflux ratio at 2 h, 3 μM amounted to 0.5.

Regarding `CCC(=O)c1cnc(NC(=O)C2CC2)cc1Nc1ccc(F)c(-c2cnn(C)n2)c1OC` [Example 4, N-(4-((4-fluoro-2-methoxy-3-(2-methyl-2H-1,2,3-triazol-4-yl)phenyl)amino)-5-propionylpyridin-2-yl)cyclopropanecarboxamide], the IC50 in data set [2] turned out to be 280 nM. In data set [3], the apical-to-basolateral permeability (Papp A→B) at 2 h, 3 μM is 54.5 ×10⁻⁶ cm/s and the efflux ratio at 2 h, 3 μM came out at 0.4.

Regarding “N-(4-((3-fluoro-2-methoxy-3-(2-methyl-2H-1,2,3-triazol-4-yl)phenyl)amino)-5-propionylpyridin-2-yl)cyclopropanecarboxamide [Example 5]”, the IC50 in data set [2] was 710 nM. In addition, in data set [4], the “Caco-2 AB” value was 258 nm/s.

Consider “N-(4-((3-methyl-2-methoxy-3-(2-methyl-2H-1,2,3-triazol-4-yl)phenyl)amino)-5-propionylpyridin-2-yl)cyclopropanecarboxamide [Example 6]”, for which the IC50 in data set [2] worked out at 770 nM. The “Caco-2 AB” value in data set [4] was 152 nm/s.
